Test results as given in publication PMC9888311, “Neonatal NET-Inhibitory Factor improves survival in the cecal ligation and puncture model of polymicrobial sepsis by inhibiting neutrophil extracellular traps” (Frontiers in Immunology, 2023).
Where no end group is shown, it is not given here.

Test system: CLP model of polymicrobial sepsis
Test: Blinded clinical illness severity score after CLP
Type: in vivo, mouse (outbred Swiss Webster)
Conditions: compared to vehicle control
Protocol: Mice were anesthetized with 3% isoflurane in an induction chamber, and anesthesia was maintained by use of inhalation via nose cone. Sepsis was induced by cecal ligation and puncture (CLP) as previously described ([30], [31]). […] The animals received subcutaneous sterile isotonic saline (0.5 mL) for fluid resuscitation immediately after surgery. Sham-operated mice were subjected to identical procedures, except that ligation and puncture of the cecum was omitted. Survival of mice subjected to CLP or sham injury was determined daily for 6 days. Twenty-four and 48 hours after CLP, all animals were scored for clinical illness severity as previously described ([32]) by an examiner blinded to treatment arm. In this assessment, higher scores reflect increased illness severity with non-surviving mice receiving a score of 10. These mice were included in the statistical analysis. In additional experiments, mature Swiss-webster mice were treated with sham surgery or CLP procedure. At 4 hours after surgery, mice underwent blinded clinical illness severity assessment, measurement of body weight and temperature, peritoneal fluid and whole blood neutrophil counts, whole blood platelet counts, and plasma creatinine level determination.

[1] = nNIF 1 mg/kg IV at 4 and 10 hours after CLP

Substance: KFNKPFVFLMIEQNTKSPLFMGKVVNPTQ-OH [nNIF, neonatal NET-Inhibitory Factor]
- illness severity score at 48 hours (nNIF 0.5 mg/kg IV at 4 and 10 hours after CLP): improvement in the illness severity scores
- illness severity score at 24 hours [1]: improvement in the illness severity scores
- illness severity score at 48 hours [1]: improvement in the illness severity scores
